According to publication PMC5719402, “Protein-Structure Assisted Optimization of 4,5-Dihydroxypyrimidine-6-Carboxamide Inhibitors of Influenza Virus Endonuclease” (Scientific Reports, 2017):

Molecular target: wild type PAN protein (PA endonuclease domain) (Influenza A virus, UniProt C3W5S0)
Experiment: biochemical
Type: binding
Settings: FP Ki

Going from `COCCNC(=O)c1nc([C@@H]2CCCN2C(=O)COc2ccccc2)[nH]c(=O)c1O` [Compound 6e] to `O=C(NCCOc1ccccc1)c1nc([C@@H]2CCCN2C(=O)COc2ccccc2F)[nH]c(=O)c1O` [Compound 9h], the Ki falls from 1600 nM to 440 ± 30 nM (3.6-fold).

Going from `O=C(NCCc1ccccc1)c1nc([C@@H]2CCCN2C(=O)c2cc(Cl)ncc2Cl)[nH]c(=O)c1O` [Compound 7d] to `O=C(NCCc1ccccc1)c1nc([C@@H]2CCCN2C(=O)c2ccnc(Cl)c2)[nH]c(=O)c1O` [Compound 7e], the Ki rises from 100 ± 20 nM to 17500 ± 1100 nM (180-fold).

`O=C(NCc1cccc(C(F)(F)F)c1)c1nc([C@@H]2CCCN2C(=O)c2c(Cl)cncc2Cl)[nH]c(=O)c1O` [Compound 8a] and `O=C(NCCc1cccc(C(F)(F)F)c1)c1nc([C@@H]2CCCN2C(=O)c2c(Cl)cncc2Cl)[nH]c(=O)c1O` [Compound 8c] are within error of each other in Ki: 160 ± 40 nM for the first, 100 ± 30 nM for the second.

Compared with `Cn1c([C@@H]2CCCN2C(=O)c2c(Cl)cncc2Cl)nc(C(=O)NCCc2ccccc2)c(O)c1=O` [Compound 8b], `Cn1c([C@@H]2CCCN2C(=O)c2c(Cl)cncc2Cl)nc(C(=O)NC2Cc3ccccc3C2)c(O)c1=O` [Compound 8g] is 24-fold higher in Ki: 70 ± 20 nM for the first, 1700 ± 100 nM for the second. The first binds more tightly here.

`O=C(NCCOc1ccccc1)c1nc([C@@H]2CCCN2C(=O)c2c(Cl)cncc2Cl)[nH]c(=O)c1O` [Compound 8d] and `O=C(NCC1Cc2ccccc2C1)c1nc([C@@H]2CCCN2C(=O)c2c(Cl)cncc2Cl)[nH]c(=O)c1O` [Compound 8h] are within error of each other in Ki: 50 ± 20 nM for the first, 100 ± 30 nM for the second.

Going from `O=C(NCCc1ccccc1)c1nc([C@@H]2CCCN2C(=O)CCc2ccccc2Cl)[nH]c(=O)c1O` [Compound 9a] to `O=C(NCCc1ccccc1)c1nc([C@@H]2CCCN2C(=O)CCc2ccccc2F)[nH]c(=O)c1O` [Compound 9c], the Ki rises from 1200 ± 200 nM to 3700 ± 800 nM (3.1-fold). The first binds more tightly here.

Going from `O=C(NCCOc1ccccc1)c1nc([C@@H]2CCCN2C(=O)CCc2ccccc2F)[nH]c(=O)c1O` [Compound 9d] to `O=C(NCCOc1ccccc1)c1nc([C@@H]2CCCN2C(=O)CSc2ccccc2F)[nH]c(=O)c1O` [Compound 9m], the Ki falls from 500 ± 100 nM to 240 ± 30 nM (2.1-fold). The second binds more tightly here.

First: O=C(NCCc1ccccc1)c1nc([C@@H]2CCCN2C(=O)COc2ccccc2F)[nH]c(=O)c1O [Compound 9g]
Second: O=C(NCCc1ccncc1)c1nc([C@@H]2CCCN2C(=O)COc2ccccc2F)[nH]c(=O)c1O [Compound 10n]
The Ki of the first is 5.1-fold higher: 1300 ± 400 nM for the first, 256 ± 7 nM for the second.

Compared with `O=C(NCCc1ccccc1)c1nc([C@@H]2CCCN2C(=O)CSc2ccccc2Cl)[nH]c(=O)c1O` [Compound 9i], `O=C(NCCc1ccccc1)c1nc([C@@H]2CCCN2C(=O)CSc2ccccc2F)[nH]c(=O)c1O` [Compound 9l] is 4.1-fold higher in Ki: 290 ± 40 nM for the first, 1200 ± 100 nM for the second.

Compared with `O=C(NCCc1ccccc1)c1nc([C@@H]2CCCN2C(=O)C[S+]([O-])c2ccccc2Cl)[nH]c(=O)c1O` (stereo partly shown) [Compound 9j], `O=C(NCC[S+]([O-])c1ccccc1)c1nc([C@@H]2CCCN2C(=O)COc2ccccc2Cl)[nH]c(=O)c1O` (stereo partly shown) [Compound 10c] is 2-fold lower in Ki: 400 ± 70 nM for the first, 200 ± 30 nM for the second. The second binds more tightly here.

Going from `O=C(NCCSc1ccccc1)c1nc([C@@H]2CCCN2C(=O)COc2ccccc2Cl)[nH]c(=O)c1O` [Compound 10a] to `O=C(NCCS(=O)(=O)c1ccccc1)c1nc([C@@H]2CCCN2C(=O)COc2ccccc2Cl)[nH]c(=O)c1O` [Compound 10d], the Ki falls from 560 ± 20 nM to 46 ± 1 nM (12-fold).

Compared with `COc1ccc(S(=O)(=O)CCNC(=O)c2nc([C@@H]3CCCN3C(=O)COc3ccccc3Cl)[nH]c(=O)c2O)cc1` [Compound 10f], `O=C(NC1Cc2ccccc2C1)c1nc([C@@H]2CCCN2C(=O)COc2ccccc2Cl)[nH]c(=O)c1O` [Compound 10h] is 12-fold higher in Ki: 38 ± 9 nM for the first, 470 ± 70 nM for the second.

Compound `O=C(NCc1cc2ccccc2o1)c1nc([C@@H]2CCCN2C(=O)CSc2ccccc2Cl)[nH]c(=O)c1O` [Compound 10l] has a Ki of 1000 ± 200 nM.

Same assay, conditions: WT FP Ki

`O=C(NCCOc1ccccc1)c1nc([C@@H]2CCCN2C(=O)COc2ccccc2Cl)[nH]c(=O)c1O` [Compound 9f] and `O=C(NCCc1ccccn1)c1nc([C@@H]2CCCN2C(=O)COc2ccccc2F)[nH]c(=O)c1O` [Compound 10m] are within error of each other in Ki: 500 ± 200 nM for the first, 400 ± 200 nM for the second.

Same assay, conditions: read-out: WT FP Ki

For `O=C(O)C(=O)CC(=O)c1ccccc1` [DPBA, reference compound], the Ki was 3700 ± 500 nM.

Test system: influenza virus A/Puerto Rico/8/34 (H1N1)
Experiment: microbe, parasite or virus in culture
Type: cell-based
Settings: H1N1, MDCK, read-out: plaque IC50

`O=C(NCCOc1ccccc1)c1nc([C@@H]2CCCN2C(=O)CCc2ccccc2Cl)[nH]c(=O)c1O` [Compound 9b] and `O=C(NCCOc1ccccc1)c1nc([C@@H]2CCCN2C(=O)CSc2ccccc2Cl)[nH]c(=O)c1O` [Compound 9k] are within 1.5-fold of each other in IC50: 6600 nM for the first, 7200 nM for the second.

`COc1ccc(S(=O)(=O)CCNC(=O)c2nc([C@@H]3CCCN3C(=O)CSc3ccccc3Cl)[nH]c(=O)c2O)cc1` [Compound 10g] gave an IC50 of 9100 nM.
